Literature values in patent US20090239783A1, “SYNERGISTIC EFFECTS OF COMBINED ADMINISTRATION OF MIRTAZAPINE AND A STIMULANT COMPOUND” (priority 2004, published 2009).

Experiments:
[1] = test system: 5-HT1 receptors
[2] = test system: muscarinic
[3] = molecular target: histamine (H1) (Homo sapiens, UniProt P35367)
Chain of histamine (H1) (P35367 whole entry): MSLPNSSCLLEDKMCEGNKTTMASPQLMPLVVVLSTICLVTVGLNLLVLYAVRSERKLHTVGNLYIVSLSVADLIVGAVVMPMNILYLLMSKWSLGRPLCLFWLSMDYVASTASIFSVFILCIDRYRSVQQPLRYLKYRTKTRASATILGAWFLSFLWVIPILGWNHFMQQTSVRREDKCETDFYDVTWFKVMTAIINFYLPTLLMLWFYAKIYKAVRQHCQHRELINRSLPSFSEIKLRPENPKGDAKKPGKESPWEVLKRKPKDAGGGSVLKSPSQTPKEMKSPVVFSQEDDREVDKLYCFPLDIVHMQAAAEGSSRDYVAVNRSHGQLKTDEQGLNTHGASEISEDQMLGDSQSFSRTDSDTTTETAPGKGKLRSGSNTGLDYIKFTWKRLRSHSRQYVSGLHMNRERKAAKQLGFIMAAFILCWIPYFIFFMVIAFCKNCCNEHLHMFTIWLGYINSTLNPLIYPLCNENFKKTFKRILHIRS

SMILES: CN1CCN2c3ncccc3Cc3ccccc3C2C1 (stereo not shown) [Mirtazapine, 1,2,3,4,10,14b-hexahydro-2-methylpyrazino [2,1-a] pyrido [2,3-c] benzazepine]
- solubility in water: slightly soluble
- affinity for 5-HT1 receptors [1]: weak
- muscarinic anticholinergic properties [2]: very weak
- histamine (H1) antagonist properties [3]: very weak
